For 15 molecules, MIC results are on record in ChEMBL document CHEMBL4477227, “Synthesis and antibacterial evaluation of macrocyclic diarylheptanoid derivatives” (Bioorg Med Chem Lett, 2016).

Converted amounts (≈) assume the structure as drawn. Some results are limits rather than exact numbers.

A word on the MIC: it is the lowest concentration found to suppress growth.

The test system of one assay is Acinetobacter baumannii. In words: Antibacterial activity against Acinetobacter baumannii ATCC 19606 by microbroth dilution method. Format: functional, ATCC 19606 = CIP 70.34 = JCM 6841. In general terms: In broth dilution the organism is exposed to a series of concentrations in liquid medium.
A further assay concerns Streptococcus pyogenes. In words: Antibacterial activity against Streptococcus pyogenes ATCC 700294 by microbroth dilution method. It is filed as functional.
For assay [1], the system named is Mycobacterium tuberculosis. Description: Antitubercular activity against Mycobacterium tuberculosis H37Rv by microbroth dilution method. It is filed as functional.
In the next assay the test system is Bacillus subtilis. Description: Antibacterial activity against Bacillus subtilis ATCC 23857 by microbroth dilution method. Format: functional.
In the next assay the test system is Proteus mirabilis. Description: Antibacterial activity against Proteus mirabilis ATCC 25933 by microbroth dilution method. Format: functional.
The next assay deals with Burkholderia cepacia. Description: Antibacterial activity against Burkholderia cepacia ATCC 25416 by microbroth dilution method. Format: functional.
Assay [2] relates to Staphylococcus aureus. In words: Antibacterial activity against methicillin-sensitive Staphylococcus aureus ATCC 29213 by microbroth dilution method. It is filed as functional.
In the next assay the test system is Klebsiella pneumoniae. In words: Antibacterial activity against Klebsiella pneumoniae ATCC 33495 by microbroth dilution method. It is filed as functional.
In a further assay the test system is Pseudomonas aeruginosa. In words: Antibacterial activity against Pseudomonas aeruginosa PAO1 by microbroth dilution method. It is filed as functional.
In the next assay the test system is Enterococcus faecalis. Description: Antibacterial activity against Enterococcus faecalis ATCC 33186 by microbroth dilution method. Format: functional.
Assay [3] has as its system Escherichia coli. In words: Antibacterial activity against Escherichia coli harboring TolC deletion mutant by microbroth dilution method. It is filed as functional.
A further assay deals with Streptococcus pneumoniae. Description: Antibacterial activity against Streptococcus pneumoniae R6 by microbroth dilution method. Format: functional.
Assay [4] concerns Staphylococcus aureus. In words: Antibacterial activity against methicillin-resistant Staphylococcus aureus NRS70 by microbroth dilution method. It is filed as functional.
In a further assay the test system is Bacillus anthracis. Description: Antibacterial activity against Bacillus anthracis Sterne 34F2 by microbroth dilution method. Format: functional.
The next assay deals with Proteus vulgaris. In words: Antibacterial activity against Proteus vulgaris ATCC 33420 by microbroth dilution method. It is filed as functional.
The test system of assay [5] is Escherichia coli. In words: Antibacterial activity against Escherichia coli K-12 by microbroth dilution method. Format: functional.
Where [6] appears, read: Acinetobacter baumannii, ATCC 19606 = CIP 70.34 = JCM 6841, read-out: MIC.
The mark [7] stands for this setting: Streptococcus pyogenes, ATCC 700294, read-out: MIC.
The mark [8] stands for this setting: Mycobacterium tuberculosis, H37Rv, read-out: MIC.
Where [9] appears, read: Bacillus subtilis, ATCC 23857, read-out: MIC.
The mark [10] stands for this setting: Staphylococcus aureus, ATCC 29213, read-out: MIC.
Setting [11] is: Enterococcus faecalis, ATCC 33186, read-out: MIC.
Where [12] appears, read: Escherichia coli, read-out: MIC.
Setting [13] is: Streptococcus pneumoniae, R6, read-out: MIC.
[14] abbreviates: Staphylococcus aureus, NRS70, read-out: MIC.
The mark [15] stands for this setting: Bacillus anthracis, Sterne 34F2, read-out: MIC.

As to `COc1ccc2cc1Oc1cc(ccc1OC)CCC(NCCN(C)C)CCCC2` (stereo unspecified), the minimum inhibitory concentration (MIC) is greater than 100 µg/mL with Acinetobacter baumannii (setting [6]); greater than 100 µg/mL with Streptococcus pyogenes (setting [7]); 100 µg/mL (≈ 242 µM) in assay [1] (setting [8]); 100 µg/mL (≈ 242 µM) with Bacillus subtilis (setting [9]); greater than 100 µg/mL with Proteus mirabilis; greater than 100 µg/mL against Burkholderia cepacia. In addition, the MIC in the assay with Staphylococcus aureus [2] (setting [10]), against Klebsiella pneumoniae, against Pseudomonas aeruginosa, in the assay on Enterococcus faecalis (setting [11]), with Escherichia coli [3] (setting [12]) and in the assay on Streptococcus pneumoniae (setting [13]) was greater than 100 µg/mL throughout. In addition, the MIC in the assay on Staphylococcus aureus [4] (setting [14]), with Bacillus anthracis (setting [15]), in the assay with Proteus vulgaris and in the assay with Escherichia coli [5] was greater than 100 µg/mL in each case.
As to `COc1ccc2cc1Oc1cc(ccc1OC)CCC(NCCc1ccccc1F)CCCC2` (stereo unspecified), the MIC with Acinetobacter baumannii (setting [6]) is 100 µg/mL (≈ 216 µM); in the assay on Streptococcus pyogenes (setting [7]), 50 µg/mL (≈ 108 µM); in assay [1] (setting [8]), 25 µg/mL (≈ 53.9 µM); with Bacillus subtilis (setting [9]), 12.5 µg/mL (≈ 27 µM); in the assay on Proteus mirabilis, greater than 100 µg/mL; against Burkholderia cepacia it was greater than 100 µg/mL. The MIC in the assay on Staphylococcus aureus [2] (setting [10]) is 50 µg/mL (≈ 108 µM); against Klebsiella pneumoniae, greater than 100 µg/mL; in the assay with Pseudomonas aeruginosa it was greater than 100 µg/mL; in the assay with Enterococcus faecalis (setting [11]) it was 25 µg/mL (≈ 53.9 µM); in the assay on Escherichia coli [3] (setting [12]), 25 µg/mL (≈ 53.9 µM); with Streptococcus pneumoniae (setting [13]), 50 µg/mL (≈ 108 µM). The MIC with Staphylococcus aureus [4] (setting [14]) was 25 µg/mL (≈ 53.9 µM); with Bacillus anthracis (setting [15]), 50 µg/mL (≈ 108 µM); in the assay on Proteus vulgaris, greater than 100 µg/mL; in the assay on Escherichia coli [5] it was greater than 100 µg/mL.
In the case of `COc1ccc2cc1Oc1cc(ccc1OC)CCC(N[C@@H]1CCCc3ccccc31)CCCC2` (stereo in doubt; 26), the MIC against Acinetobacter baumannii was greater than 100 µg/mL; in assay [1], 50 µg/mL (≈ 106 µM); with Bacillus subtilis, 25 µg/mL (≈ 53 µM); against Escherichia coli [3] it was 25 µg/mL (≈ 53 µM); in the assay with Streptococcus pneumoniae, 50 µg/mL (≈ 106 µM).
As for `COc1ccc2cc1Oc1cc(ccc1OC)CCC(OS(C)(=O)=O)CCCC2` (stereo unspecified), the MIC (with Acinetobacter baumannii (setting [6]); with Streptococcus pyogenes (setting [7]); in assay [1] (setting [8]); in the assay on Bacillus subtilis (setting [9]); with Proteus mirabilis; with Burkholderia cepacia) was greater than 100 µg/mL throughout. In addition, the MIC in the assay with Staphylococcus aureus [2] (setting [10]), against Klebsiella pneumoniae, against Pseudomonas aeruginosa, with Enterococcus faecalis (setting [11]), in the assay on Escherichia coli [3] (setting [12]) and in the assay with Streptococcus pneumoniae (setting [13]) was greater than 100 µg/mL throughout. The minimum inhibitory concentration (MIC) in the assay with Staphylococcus aureus [4] (setting [14]), with Bacillus anthracis (setting [15]), against Proteus vulgaris and in the assay on Escherichia coli [5] was greater than 100 µg/mL each time.
For `COc1ccc2cc1Oc1cc(ccc1OC)CCC(N(CCO)CCO)CCCC2` (stereo unspecified), the MIC (with Acinetobacter baumannii (setting [6]); in the assay with Streptococcus pyogenes (setting [7]); in assay [1] (setting [8]); with Bacillus subtilis (setting [9]); with Proteus mirabilis; in the assay with Burkholderia cepacia) was greater than 100 µg/mL throughout. Also, the MIC in the assay on Staphylococcus aureus [2] (setting [10]), in the assay on Klebsiella pneumoniae, in the assay with Pseudomonas aeruginosa, in the assay on Enterococcus faecalis (setting [11]), with Escherichia coli [3] (setting [12]) and in the assay on Streptococcus pneumoniae (setting [13]) was greater than 100 µg/mL throughout. Moreover, the MIC in the assay with Staphylococcus aureus [4] (setting [14]), in the assay on Bacillus anthracis (setting [15]), against Proteus vulgaris and with Escherichia coli [5] was greater than 100 µg/mL in each case.
Turning to `COc1ccc2cc1Oc1cc(ccc1OC)CCC(NC(=O)/C=C/c1ccc(F)cc1)CCCC2` (stereo unspecified), the MIC (in the assay with Acinetobacter baumannii (setting [6]); in the assay with Streptococcus pyogenes (setting [7]); in assay [1] (setting [8]); in the assay with Bacillus subtilis (setting [9]); in the assay with Proteus mirabilis; in the assay with Burkholderia cepacia) was greater than 100 µg/mL in each case. Besides, the MIC in the assay with Staphylococcus aureus [2] (setting [10]), in the assay on Klebsiella pneumoniae, with Pseudomonas aeruginosa, in the assay on Enterococcus faecalis (setting [11]), in the assay on Escherichia coli [3] (setting [12]) and with Streptococcus pneumoniae (setting [13]) was greater than 100 µg/mL each time. Besides, the MIC in the assay on Staphylococcus aureus [4] (setting [14]), with Bacillus anthracis (setting [15]), with Proteus vulgaris and against Escherichia coli [5] was greater than 100 µg/mL in each case.
Take `COc1ccc2cc1Oc1cc(ccc1OC)CCC(NCCc1ccc3c(c1)OCO3)CCCC2` (stereo unspecified): the MIC with Acinetobacter baumannii (setting [6]) is greater than 100 µg/mL; in the assay with Streptococcus pyogenes (setting [7]), 12.5 µg/mL (≈ 25.5 µM); in [1] (setting [8]), 25 µg/mL (≈ 51.1 µM); in the assay on Bacillus subtilis (setting [9]), 12.5 µg/mL (≈ 25.5 µM); in the assay with Proteus mirabilis, greater than 100 µg/mL; with Burkholderia cepacia it was greater than 100 µg/mL. Further, the minimal inhibitory concentration (MIC) is 50 µg/mL (≈ 102 µM) with Staphylococcus aureus [2] (setting [10]); greater than 100 µg/mL against Klebsiella pneumoniae; greater than 100 µg/mL against Pseudomonas aeruginosa; 50 µg/mL (≈ 102 µM) in the assay on Enterococcus faecalis (setting [11]); 12.5 µg/mL (≈ 25.5 µM) with Escherichia coli [3] (setting [12]); 50 µg/mL (≈ 102 µM) with Streptococcus pneumoniae (setting [13]). The MIC with Staphylococcus aureus [4] (setting [14]) was 25 µg/mL (≈ 51.1 µM); in the assay on Bacillus anthracis (setting [15]), 50 µg/mL (≈ 102 µM); against Proteus vulgaris, greater than 100 µg/mL; in the assay with Escherichia coli [5], greater than 100 µg/mL.
Take `COc1ccc2cc1Oc1cc(ccc1OC)CCC(N[C@H]1CCCc3ccccc31)CCCC2` (stereo in doubt; 27): the MIC with Acinetobacter baumannii (setting [6]), in the assay with Streptococcus pyogenes (setting [7]), with Bacillus subtilis (setting [9]), against Proteus mirabilis, against Burkholderia cepacia and against Klebsiella pneumoniae was greater than 100 µg/mL throughout. Besides, the minimal inhibitory concentration (MIC) against Pseudomonas aeruginosa, with Enterococcus faecalis (setting [11]), in the assay on Escherichia coli [3], with Streptococcus pneumoniae (setting [13]), in the assay on Staphylococcus aureus [4] (setting [14]) and in the assay with Bacillus anthracis (setting [15]) was greater than 100 µg/mL each time. Besides, the MIC in the assay on Proteus vulgaris and in the assay on Escherichia coli [5] was greater than 100 µg/mL throughout.
Regarding `COc1ccc2cc1Oc1cc(ccc1OC)CCC(NCc1ccccc1)CCCC2` (stereo unspecified), the MIC in [1] (setting [8]) is 12.5 to 50 µg/mL (≈ 29 to 116 µM).
The same measure, in the same setting: next, `CCCCCCNC1CCCCc2ccc(OC)c(c2)Oc2cc(ccc2OC)CC1` (stereo unspecified): 12.5 to 50 µg/mL (≈ 29.4 to 117 µM); `COc1ccc2cc1Oc1cc(ccc1OC)CCC(NCCc1ccccc1)CCCC2` (stereo unspecified): 12.5 to 50 µg/mL (≈ 28.1 to 112 µM).
`COc1ccc2cc1Oc1cc(ccc1OC)CCC(N[C@H]1CCCc3ccccc31)CCCC2` (stereo in doubt; 28): the MIC against Streptococcus pyogenes was greater than 100 µg/mL; in the assay on Bacillus subtilis it was greater than 100 µg/mL; against Staphylococcus aureus [2], greater than 100 µg/mL; against Enterococcus faecalis, greater than 100 µg/mL; in the assay with Escherichia coli [3], 25 µg/mL (≈ 53 µM); in the assay on Streptococcus pneumoniae, greater than 100 µg/mL. Further, the MIC against Staphylococcus aureus [4] and against Bacillus anthracis was greater than 100 µg/mL each time.
For the molecule `O=C(N[C@H](CO)[C@H](O)c1ccc([N+](=O)[O-])cc1)C(Cl)Cl` [CHLORAMPHENICOL], the MIC with Acinetobacter baumannii (setting [6]) is 50 µg/mL (≈ 155 µM); with Streptococcus pyogenes (setting [7]), 3.12 µg/mL (≈ 9.67 µM); in the assay on Bacillus subtilis (setting [9]) it was 6.25 µg/mL (≈ 19.3 µM); against Proteus mirabilis, greater than 100 µg/mL; with Burkholderia cepacia, greater than 100 µg/mL; in the assay with Staphylococcus aureus [2] (setting [10]) it was 6.25 µg/mL (≈ 19.3 µM). The MIC against Klebsiella pneumoniae is greater than 100 µg/mL; against Pseudomonas aeruginosa, greater than 100 µg/mL; in the assay on Escherichia coli [3] (setting [12]), 0.78 µg/mL (≈ 2.41 µM); in the assay on Streptococcus pneumoniae (setting [13]), 1.56 µg/mL (≈ 4.83 µM); in the assay on Staphylococcus aureus [4] (setting [14]), 3.12 µg/mL (≈ 9.67 µM); with Bacillus anthracis (setting [15]) it was 3.12 µg/mL (≈ 9.67 µM). Also, the minimal inhibitory concentration (MIC) is greater than 100 µg/mL with Proteus vulgaris and 6.25 µg/mL (≈ 19.3 µM) with Escherichia coli [5].
Consider `COc1ccc2cc1Oc1cc(ccc1OC)CCC(N[C@@H]1CCCc3ccccc31)CCCC2` (stereo in doubt; 25), for which the MIC in [1] (setting [8]) is greater than 100 µg/mL; in the assay on Bacillus subtilis, 6.25 µg/mL (≈ 13.3 µM); against Proteus mirabilis, greater than 100 µg/mL; in the assay on Burkholderia cepacia, greater than 100 µg/mL; in the assay with Staphylococcus aureus [2] (setting [10]), greater than 100 µg/mL; with Klebsiella pneumoniae, greater than 100 µg/mL. In addition, the MIC is greater than 100 µg/mL in the assay with Pseudomonas aeruginosa, 100 µg/mL (≈ 212 µM) with Escherichia coli [3], greater than 100 µg/mL with Proteus vulgaris and greater than 100 µg/mL against Escherichia coli [5].
Take `NNC(=O)c1ccncc1` [ISONIAZID]: the MIC in assay [1] (setting [8]) turned out to be 0.03 µg/mL (≈ 0.219 µM).
